Source: ChEMBL document CHEMBL1158688, “Synthesis and characterization of the 7-(4-aminomethyl-1H-1,2,3-triazol-1-yl) analogue of kabiramide C” (J Nat Prod, 2005)
Active and inactive are the calls of the source. The calls are words filed in the database; no cut-off is given here.

Organism: Oryctolagus cuniculus
Experiment: Binding affinity to rabbit Prodan-labeled G-actin

Activity	SMILES
Active	CO[C@H]([C@H](C)/C=C/N(C)C=O)[C@@H](C)C(=O)CC[C@H](C)[C@@H](C[C@@H]1OC(=O)CC(OC(N)=O)C[C@H](C)C[C@@H](n2cc(CNC(=O)OCC3c4ccccc4-c4ccccc43)nn2)[C@H](C)[C@@H](OC)c2coc(n2)-c2coc(n2)-c2coc(n2)/C=C/C[C@H](OC)[C@H]1C)OC (stereo partly drawn)
Active	CO[C@H]([C@H](C)/C=C/N(C)C=O)[C@@H](C)C(=O)CC[C@H](C)[C@@H](C[C@@H]1OC(=O)CC(OC(N)=O)C[C@H](C)C[C@@H](n2cc(CN)nn2)[C@H](C)[C@@H](OC)c2coc(n2)-c2coc(n2)-c2coc(n2)/C=C/C[C@H](OC)[C@H]1C)OC (stereo partly drawn)
Active	CO[C@H]([C@H](C)/C=C/N(C)C=O)[C@@H](C)C(=O)CC[C@H](C)[C@@H](C[C@@H]1OC(=O)CC(OC(N)=O)C[C@H](C)C[C@@H](N=[N+]=[N-])[C@H](C)[C@@H](OC)c2coc(n2)-c2coc(n2)-c2coc(n2)/C=C/C[C@H](OC)[C@H]1C)OC (stereo partly drawn)
